Data as given in ChEMBL document CHEMBL3885881, “DrugMatrix”.

Species on record: Rattus norvegicus
Assay: DrugMatrix - Regimen: Daily Repeat
Type: toxicity, organism-based, Sprague-Dawley
Parameters: regimen Daily Repeat, gender Male, age 6-8 weeks
Conditions: in vivo, sc, 54 mg/kg, route subcutaneous, dose level Low, […]
[1] = 72 h, tissue Plasma, time 3 day
[2] = 120 h, tissue Blood, time 5 day
[3] = 120 h, tissue Plasma, time 5 day

NYSTATIN
ABSOLUTE BASOPHIL (72 h, tissue Blood, time 3 day): 0 CELLS/uL | ABSOLUTE EOSINOPHIL (72 h, tissue Blood, time 3 day): 50 CELLS/uL | ABSOLUTE LYMPHOCYTE (72 h, tissue Blood, time 3 day): 13843 CELLS/uL | ABSOLUTE MONOCYTE (72 h, tissue Blood, time 3 day): 920.67 CELLS/uL | ABSOLUTE SEGMENTED NEUTROPHIL (72 h, tissue Blood, time 3 day): 2486.33 CELLS/uL | BASOPHIL (72 h, tissue Blood, time 3 day): 0% | EOSINOPHIL (72 h, tissue Blood, time 3 day): 0.33% | ERYTHROCYTE COUNT (72 h, tissue Blood, time 3 day): 5.95 x10E6/uL | HEMATOCRIT (72 h, tissue Blood, time 3 day): 34.97% | HEMOGLOBIN (72 h, tissue Blood, time 3 day): 13.07 G/DL | LEUKOCYTE COUNT (72 h, tissue Blood, time 3 day): 17.3 x10E3/uL | LYMPHOCYTE (72 h, tissue Blood, time 3 day): 80.33% | MEAN CORPUSCULAR HEMOGLOBIN (72 h, tissue Blood, time 3 day): 21.93 pg | MEAN CORPUSCULAR HEMOGLOBIN CONCENTRATION (72 h, tissue Blood, time 3 day): 37.37 G/DL | MEAN CORPUSCULAR VOLUME (72 h, tissue Blood, time 3 day): 58.73 fL | MONOCYTE (72 h, tissue Blood, time 3 day): 5.33% | NEUTROPHIL (72 h, tissue Blood, time 3 day): 14% | NUCLEATED RED BLOOD CELLS (72 h, tissue Blood, time 3 day): 0 /100WBC | PLATELET COUNT (72 h, tissue Blood, time 3 day): 1209 x10E3/uL | ALANINE AMINOTRANSFERASE [1]: 35 u/L | ALBUMIN [1]: 2.97 G/DL | ALKALINE PHOSPHATASE [1]: 281 u/L | ASPARTATE AMINOTRANSFERASE [1]: 75.67 u/L | BLOOD UREA NITROGEN [1]: 18.67 mg/dL | CARBON DIOXIDE [1]: 21.33 mmol/L | CHOLESTEROL [1]: 62.33 mg/dL | CREATINE PHOSPHOKINASE [1]: 212.67 u/L | CREATININE [1]: 0.18 mg/dL | LACTATE DEHYDROGENASE [1]: 276.67 u/L | LIPASE [1]: 6.67 u/L | PHOSPHORUS [1]: 11.77 mg/dL | POTASSIUM [1]: 6.36 MEQ/L | SODIUM [1]: 149.8 MEQ/L | TOTAL BILIRUBIN [1]: 0.13 mg/dL | URIC ACID [1]: 2 mg/dL | ABSOLUTE BASOPHIL [2]: 0 CELLS/uL | ABSOLUTE EOSINOPHIL [2]: 278 CELLS/uL | ABSOLUTE LYMPHOCYTE [2]: 19000 CELLS/uL | ABSOLUTE MONOCYTE [2]: 554 CELLS/uL | ABSOLUTE SEGMENTED NEUTROPHIL [2]: 5634.67 CELLS/uL | BASOPHIL [2]: 0% | EOSINOPHIL [2]: 1% | ERYTHROCYTE COUNT [2]: 5.2 x10E6/uL | HEMATOCRIT [2]: 32.27% | HEMOGLOBIN [2]: 12.13 G/DL | LEUKOCYTE COUNT [2]: 25.47 x10E3/uL | LYMPHOCYTE [2]: 76.67% | MEAN CORPUSCULAR HEMOGLOBIN [2]: 23.37 pg | MEAN CORPUSCULAR HEMOGLOBIN CONCENTRATION [2]: 37.63 G/DL | MONOCYTE [2]: 2% | NEUTROPHIL [2]: 20.33% | NUCLEATED RED BLOOD CELLS [2]: 0 /100WBC | PLATELET COUNT [2]: 1747 x10E3/uL | ALANINE AMINOTRANSFERASE [3]: 31.33 u/L | ALBUMIN [3]: 2.63 G/DL | ALKALINE PHOSPHATASE [3]: 261.33 u/L | ASPARTATE AMINOTRANSFERASE [3]: 76 u/L | BLOOD UREA NITROGEN [3]: 22.33 mg/dL | CARBON DIOXIDE [3]: 24.67 mmol/L | CHLORIDE [3]: 107.33 MEQ/L | CHOLESTEROL [3]: 48.67 mg/dL | CREATINE PHOSPHOKINASE [3]: 286 u/L | CREATININE [3]: 0.17 mg/dL | GLUCOSE [3]: 135 mg/dL | LACTATE DEHYDROGENASE [3]: 423.33 u/L | LIPASE [3]: 7 u/L | POTASSIUM [3]: 6.66 MEQ/L | SODIUM [3]: 147.07 MEQ/L | TOTAL BILIRUBIN [3]: 0.1 mg/dL | TOTAL PROTEIN [3]: 5.43 G/DL | URIC ACID [3]: 1.73 mg/dL
